Laboratory results: publication PMC12163635, “Synthetic Retinoids for the Modulation of Genomic and Nongenomic Processes in Neurodegenerative Diseases” (ACS Omega, 2025)

What was measured:
[1] = test system: Sil-15 cells containing a RARE driving a lacZ reporter; experiment: X-Gal-based RA reporter assay (genomic response); format: cell-based; design: genomic response Emax (±95% CI): unit not given here; details: for genomic response Emax (±95% CI) / EC50: Sil-15 reporter cells; for genomic response Emax (±95% CI): absorbance at 650 nm; for EC50: read-out: genomic response EC50 (±95% CI), overnight, 10^–6 to 10^–14 M; for genomic EC50 compared with ATRA: nonoverlapping 95% CI
Source text: Following chemical design and synthesis, the synthetic retinoid library was screened for genomic and nongenomic biological activities and compared to the response of the endogenous retinoid, ATRA. In these assays, the EC50 value represented the concentration of retinoid that gave half-maximal response (potency), while the E max value represented the maximum response achievable from the retinoid (efficacy).
The transcriptional genomic activity of the retinoids was quantified using Sil-15 cells containing a RARE driving a lacZ reporter. […] Twenty-two of the synthetic retinoids were effective in inducing genomic activity. […] In addition, the retinoids varied in their efficacies.
The Sil-15 cell line was used in the X-gal RA reporter assay described below. The cells were grown in Dulbecco’s modified Eagle’s medium (DMEM) containing 10% fetal bovine serum (FCS) (Invitrogen/Gibco), 0.6% penicillin-streptomycin (Gibco) and 0.8 mg/mL G418 sulfate (Sigma) for selection. They were maintained in a humidified atmosphere containing 5% CO2 at 37 °C. The medium was changed three times a week and the cells were passaged at 70% confluence using 0.05% trypsin-EDTA.
Sil-15 cells are F9 teratocarcinoma cells stably transfected with a plasmid containing the LacZ gene under the control of a DR5-type RA response element (RARE). The reporter cell line was used to detect the transcriptional genomic activity of ATRA and other retinoids by colorimetrically quantifying the insoluble blue product generated by β-galactosidase from X-gal during the assay. The assay was performed by plating 100,000 cells per well in the 0.1% gelatin-coated 96-well plates and leaving them to attach overnight. The ATRA/retinoids dilutions ranging from 10^–6 to 10^–14 M were incubated on the reporter cells overnight at 37 °C, in 5% CO2. A standard curve of ATRA was included in each experiment to ensure the reproducibility of the results between assays performed on different days. All the assays for ATRA as well as the retinoids were quantified in triplicate. Serial dilutions of retinoids were prepared from a stock solution under red/orange light. The stock solutions prepared in DMSO for each retinoid varied depending on the solubility of each compound. Each stock was stored at −20 °C and protected from light. The next day, Sil-15 cells were washed with PBS, fixed with 1% glutaraldehyde and 1 mM MgCl2 solution for 15 min, and developed in X-gal developing solution (0.2% X-Gal, 1 mM MgCl2, 3.3 mM potassium ferricyanide and 3.3 mM potassium ferrocyanide in PBS). The plates were read on an E max microplate reader (Molecular Devices) at 650 nm.
(§1) All data are presented as mean ± SEM of three independent experiments with biological triplicates. Statistical analyses were performed in Microsoft Office Excel 2019 or GraphPad Prism 7.0c version (Prism, GraphPad Software, San Diego, CA). Neurite outgrowth data were analyzed by one-way ANOVA with Newman-Keuls multiple comparison test as appropriate; P value <0.05 was considered statistically significant. *P < 0.05, **P < 0.01. Data for X-Gal and ERK1/2 phosphorylation were analyzed using sigmoidal dose–response analysis of log (agonist) versus response curve (stimulation).

[2] = test system: ERK1/2 phosphorylation in SH-SY5Y cells; experiment: ERK1/2 phosphorylation (nongenomic response), AlphaScreen SureFire; format: cell-based, human; details: for EC50: Homo sapiens, read-out: nongenomic response EC50 (±95% CI); for EC50 / nongenomic response Emax (±95% CI): SH-SY5Y cells, 1 h; for nongenomic E max compared with ATRA: nonoverlapping 95% CI
Procedure: After screening the retinoids for genomic responses, they were tested for their nongenomic ability to rapidly phosphorylate ERK1/2 in the SH-SY5Y cell line. ATRA is known as a potent activator of ERK1/2 − and was used as the standard for comparison. […] The efficacies of the remaining seven retinoids were similar to ATRA.
(§2) SH-SY5Y cell line as used in ERK phosphorylation and neurite outgrowth assays described below. The cells were grown in DMEM containing 10% FCS at 37 °C with 5% CO2. The medium was changed three times a week and the cells were passaged at 70% confluence using 0.05% trypsin-EDTA.
To quantify ERK1/2 phosphorylation, SH-SY5Y cells (100,000 cells/well) were plated onto 96-well plates and serum-starved for 24 h in DMEM. Cells were assayed in serum-free DMEM and stimulated for 60 min at 37 °C in a humidified atmosphere. Retinoids were tested at concentrations ranging from 10 to 4 to 10–11 M and at a final concentration of 0.1% DMSO. At the end of the assay, the medium was removed, and cells were lysed with lysis buffer supplied in the AlphaScreen SureFire ERK1/2 kit (PerkinElmer). The assay was performed in 384-well white Proxiplates according to the manufacturer’s instructions and using the beads supplied in the protein A general IgG detection kit (PerkinElmer). Briefly, 4 μL samples were incubated with 7 μL of the freshly prepared mixture containing donor and acceptor beads. Plates were incubated at room temperature and read with the Envision system (PerkinElmer Life Sciences) using AlphaScreen settings.
as §1

SH-SY5Y cells = experiment: Neurite outgrowth; format: cell-based, human; details: 10 nM, 5 days
Procedure: Following the characterization of retinoids for their genomic and nongenomic activities, the ability of retinoids to differentiate and induce neurite outgrowth in the neuroblastoma cell line, SH-SY5Y cells, was examined (Figure ). Neurite outgrowth can be induced in this cell line by ATRA at 10 μM.
as §2
SH-SY5Y cells were plated at 10,000 cells/well in 12-well plates containing 16 mm acid-treated/poly L-lysine-coated glass coverslips. After 24 h, retinoids were added to the medium and tested at two different concentrations, 10 μM and 10 nM, with a final DMSO concentration of 0.01 or 0.0001%, respectively. The plates were incubated for 5 days at 5% CO2/37 °C. All retinoid concentrations were tested in triplicate. Cells were fixed using 4% paraformaldehyde and stained for β-III tubulin (1:1000; Sigma). For each neurite outgrowth experiment, 3 coverslips (in 3 wells) were used. ImageJ software with the NeuronJ plugin was used to quantify neurite outgrowth on stained cells in each of the 10 randomly selected images of each coverslip taken using a Nikon Eclipse E400 fluorescence microscope. The average neurite length was calculated for each image by dividing total neurite length by the total number of neurites per image.
as §1

## CC1=C(/C=C/C(C)=C/C=C/C(C)=C/C(=O)O)C(C)(C)CCC1 [ATRA, all-trans retinoic acid, reference compound]
[1]
  genomic response Emax (±95% CI): 170 (±5.65)
  EC50: 1.04 nM
[2]
  EC50: 33.1 nM
  nongenomic response Emax (±95% CI): 48.6 (±1.85)
SH-SY5Y cells
  induction of neurite outgrowth compared with ATRA: does not significantly induce such outgrowth

## COc1cc2c(cc1C#Cc1ccc(C(=O)O)cc1F)C(C)(C)CCC2(C)C [Compound 21, 3-Fluoro-4-[2-(3-methoxy-5,5,8,8-tetramethyl-5,6,7,8-tetrahydronaphthalen-2-yl)ethynyl]benzoic Acid]
[1]
  genomic EC50 compared with ATRA: significantly higher EC50 values than ATRA
  EC50: 5.31 nM
[2]
  EC50: 90.8 nM
  nongenomic response Emax (±95% CI): 36.9 (±2.86)
  nongenomic E max compared with ATRA: E max values significantly lower than ATRA
SH-SY5Y cells
  induction of neurite outgrowth compared with ATRA: induced neurite outgrowth but not significantly compared to ATRA

## CC1(C)CCC(C)(C)c2cc(C#Cc3ccc(C(=O)O)cc3)ccc21 [EC23, reference compound]
[1]
  genomic response Emax (±95% CI): 169 (±10.8)
  genomic EC50 compared with ATRA: significantly lower EC50 than ATRA
  EC50: 0.128 nM
[2]
  EC50: 30.6 nM
  nongenomic response Emax (±95% CI): 92.5 (±6.96)
  nongenomic E max compared with ATRA: E max values significantly higher than ATRA
SH-SY5Y cells
  induction of neurite outgrowth compared with ATRA: induced significant neurite outgrowth compared to ATRA
